Measured values reported in paper PMC4805777 (International Journal for Parasitology: Drugs and Drug …, 2016).

System: T. cruzi (Strain H1)
Assay: T. cruzi in vivo assay, second study
Design: species or system Trypanosoma cruzi
Conditions: BALB/c mice, 100 mg/kg/day orally, 21 days (method: 20 days)

`O=C(Cn1ccnc1[N+](=O)[O-])NCc1ccccc1` [Benznidazole] was tested, and the “parasitemia, in words” value was “undetectable” and the “survival, in words” value (50-day study) was “all the mice survived”.
